IC50 and Ki data for 2 compounds are collected here from publication PMC5820112 (Journal of molecular and cellular cardiology, 2017).

The target of assay [1] is T1, CaMKIIδ (Ca2+/calmodulin-dependent protein kinase II delta) (Homo sapiens, UniProt Q13557). The experiment in a line: continuous coupled spectrophotometric kinase assay with autocamtide-3. The class given is biochemical.
Assay [2] addresses T1, CaMKIIδ (Ca2+/calmodulin-dependent protein kinase II delta). The description is as above. The class given is biochemical. This is another data set of the same source.

T1 sequence (Q13557 2-499): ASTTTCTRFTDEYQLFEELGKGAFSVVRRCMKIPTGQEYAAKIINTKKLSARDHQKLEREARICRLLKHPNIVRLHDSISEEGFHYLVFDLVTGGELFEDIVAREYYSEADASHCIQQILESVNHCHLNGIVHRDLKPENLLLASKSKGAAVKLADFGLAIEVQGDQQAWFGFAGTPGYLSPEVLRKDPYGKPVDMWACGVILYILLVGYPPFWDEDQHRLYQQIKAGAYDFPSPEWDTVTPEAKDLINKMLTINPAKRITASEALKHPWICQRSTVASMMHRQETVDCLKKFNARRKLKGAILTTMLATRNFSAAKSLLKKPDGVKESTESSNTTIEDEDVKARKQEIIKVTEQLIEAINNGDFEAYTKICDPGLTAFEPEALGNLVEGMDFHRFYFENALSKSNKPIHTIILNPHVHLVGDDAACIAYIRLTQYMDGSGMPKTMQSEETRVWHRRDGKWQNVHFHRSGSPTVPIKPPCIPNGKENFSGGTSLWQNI

As usually defined, the IC50 is the concentration that gives 50% inhibition. The low end stands for greater potency in that assay, the high end for weaker potency in that assay. In assay [1], `COc1ccc(S(=O)(=O)N(CCO)c2ccccc2CN(C)C/C=C/c2ccc(Cl)cc2)cc1` [KN-93] displayed an IC50 of 1400 nM. A word on the Ki: it is a dissociation constant, usually derived from enzyme kinetics or from competition with a known ligand. Low readings indicate higher affinity, high ones lower affinity. On to AS105, for which the affinity in assay [2], expressed as Ki, was 3 nM.
